Laboratory results published in patent US20260241012A1, “1,8-NAPHTHYRIDIN-2-ONE HETEROBIFUNCTIONAL BCL6 DEGRADERS” (Treeline Biosciences, Inc., priority 2022, published 2026).

Biological target: T1, N-terminal HiBiT tagged BCL6 (Homo sapiens, UniProt P41182)
T1 construct: expressed in transfected cells; host or cells: HT1080 (ATCC CCL-121), stably transduced with lentivirus pLV-UBC-N-HiBiT-BCL6-PGK-puro
Assay: HiBiT based degradation assay
Format: cell-based
Conditions: HT1080 cells expressing N-terminal HiBiT tagged BCL6, 5 hours of incubation; for Ymin (5 hr): BCL6 degradation normalized with DMSO control; for DC50: four-parameter logistic model, read-out: EC50 (5 hr)
Procedure, shortened: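 Degradation measured by luminescence from the Nano-Glo HiBiT lytic reagent (15 min, room temperature), normalized to DMSO controls and fitted to a four-parameter curve.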

Row | Compound | Ymin (5 hr) | DC50
1 | CNC(=O)COc1cc2cc(Nc3nc(N4CC[C@H](CN5CCN(c6cccc7c(C8CCC(=O)NC8=O)nn(C)c67)CC5)[C@@H](C)C4)ncc3Cl)cnc2n(C(C)C)c1=O (stereo partly drawn) [Compound 177d, 2-((6-((5-chloro-2-((3R,4S)-4-((4-(3-(2,6-dioxopiperidin-3-yl)-1-methyl-1H-indazol-7-yl)piperazin-1-yl)methyl)-3-methylpiperidin-1-yl)pyrimidin-4-yl)amino)-1-isopropyl-2-oxo-1,2-dihydro-1,8-naphthyridin-3-yl)oxy)-N-methylacetamide] | ++++ (Ymin < 30%) | 10 to 100 nM
2 | CNC(=O)COc1cc2cc(Nc3nc(N4CCN(CC5CCN(c6cccc7c(C8CCC(=O)NC8=O)nn(C)c67)CC5)C5(CC5)C4)ncc3Cl)cnc2n(C(C)C)c1=O (stereo not shown) [Compound 191, 2-[[6-[[5-chloro-2-[4-[[1-[3-(2,6-dioxo-3-piperidyl)-1-methyl-indazol-7-yl]-4-piperidyl]methyl]-4,7-diazaspiro[2.5]octan-7-yl]pyrimidin-4-yl]amino]-1-isopropyl-2-oxo-1,8-naphthyridin-3-yl]oxy]-N-methyl-acetamide] | +++ (30% ≤ Ymin < 50%) | 10 to 100 nM
3 | CNC(=O)COc1cc2cc(Nc3nc(N4CCN(CC5CCN(c6cccc7c(C8CCC(=O)NC8=O)nn(C)c67)CC5)[C@@H](C(C)(C)O)C4)ncc3Cl)cnc2n(C(C)C)c1=O (stereo partly shown) [Compound 208b] | ++++ (Ymin < 30%) | 10 to 100 nM
4 | CNC(=O)COc1cc2cc(Nc3cc(N4CCN(CC5CCN(c6cccc7c(C8CCC(=O)NC8=O)nn(C)c67)CC5)CC4)ncc3Cl)cnc2n(C)c1=O (stereo not shown) [Compound 160, 2-((6-((5-chloro-2-(4-((1-(3-(2,6-dioxopiperidin-3-yl)-1-methyl-1H-indazol-7-yl)piperidin-4-yl)methyl)piperazin-1-yl)pyridin-4-yl)amino)-1-methyl-2-oxo-1,2-dihydro-1,8-naphthyridin-3-yl)oxy)-N-methylacetamide] | ++++ (Ymin < 30%) | < 10 nM
5 | CNC(=O)COc1cc2cc(Nc3nc(N4CC5(CN(CC6CCN(c7ccc8c(C9CCC(=O)NC9=O)nn(C)c8c7)CC6)C5)C4)ncc3Cl)cnc2n(C)c1=O (stereo not shown) [Compound 118, 2-((6-((5-chloro-2-(6-((1-(3-(2,6-dioxopiperidin-3-yl)-1-methyl-1H-indazol-6-yl)piperidin-4-yl)methyl)-2,6-diazaspiro[3.3]heptan-2-yl)pyrimidin-4-yl)amino)-1-methyl-2-oxo-1,2-dihydro-1,8-naphthyridin-3-yl)oxy)-N-methylacetamide] | ++++ (Ymin < 30%) | < 10 nM
6 | CNC(=O)COc1cc2cc(Nc3nc(N4CCN(C[C@H]5CCN(c6ccc7c(C8CCC(=O)NC8=O)nn(C)c7c6)C5)CC4)ncc3Cl)cnc2n(C(C)C)c1=O (stereo partly drawn) [Compound 228b, 2-((6-((5-chloro-2-(4-(((3R)-1-(3-(2,6-dioxopiperidin-3-yl)-1-methyl-1H-indazol-6-yl)pyrrolidin-3-yl)methyl)piperazin-1-yl)pyrimidin-4-yl)amino)-1-isopropyl-2-oxo-1,2-dihydro-1,8-naphthyridin-3-yl)oxy)-N-methylacetamide] | ++ (50% ≤ Ymin < 70%) | 10 to 100 nM
7 | CNC(=O)COc1cc2cc(Nc3nc(N4CC5(CC[C@@H](Nc6ccc7c(C8CCC(=O)NC8=O)nn(C)c7c6)[C@@H](C)C5)C4)ncc3Cl)cnc2n(C)c1=O (single isomer, unassigned) [Compound 156c] | ++++ (Ymin < 30%) | < 10 nM
8 | CNC(=O)COc1cc2cc(Nc3nc(N4CCN(CC5CCN(c6cccc7c(C8CCC(=O)NC8=O)nn(C)c67)CC5)CC4)ncc3Cl)cnc2n(CCOC)c1=O (stereo not shown) [Compound 154, 2-((6-((5-chloro-2-(4-((1-(3-(2,6-dioxopiperidin-3-yl)-1-methyl-1H-indazol-7-yl)piperidin-4-yl)methyl)piperazin-1-yl)pyrimidin-4-yl)amino)-1-(2-methoxyethyl)-2-oxo-1,2-dihydro-1,8-naphthyridin-3-yl)oxy)-N-methylacetamide] | ++++ (Ymin < 30%) | < 10 nM
9 | CNC(=O)COc1cc2cc(Nc3nc(N4CCC(CN5CCN(c6ccc7c(C8CCC(=O)NC8=O)nn(C)c7c6)CC5)CC4)ncc3Cl)cnc2n(C)c1=O (stereo not shown) [Compound 133, 2-((6-((5-chloro-2-(4-((4-(3-(2,6-dioxopiperidin-3-yl)-1-methyl-1H-indazol-6-yl)piperazin-1-yl)methyl)piperidin-1-yl)pyrimidin-4-yl)amino)-1-methyl-2-oxo-1,2-dihydro-1,8-naphthyridin-3-yl)oxy)-N-methylacetamide] | ++++ (Ymin < 30%) | < 10 nM
10 | CNC(=O)COc1cc2cc(Nc3nc(N4CC[C@H](CN5CCN(c6ccc7c(C8CCC(=O)NC8=O)nn(C)c7c6)CC5)C4)ncc3Cl)cnc2n(C(C)C)c1=O (stereo partly drawn) [Compound 218b, 2-[[6-[[5-chloro-2-[(3R)-3-[[4-[3-(2,6-dioxo-3-piperidyl)-1-methyl-indazol-6-yl]piperazin-1-yl]methyl]pyrrolidin-1-yl]pyrimidin-4-yl]amino]-1-isopropyl-2-oxo-1,8-naphthyridin-3-yl]oxy]-N-methyl-acetamide] | +++ (30% ≤ Ymin < 50%) | < 10 nM
11 | CNC(=O)COc1cc2cc(Nc3nc(N4CCC(Oc5ccc6c(C7CCC(=O)NC7=O)nn(C)c6c5)CC4)ncc3Cl)cnc2n(C)c1=O (stereo not shown) [Compound 147, 2-((6-((5-chloro-2-(4-((3-(2,6-dioxopiperidin-3-yl)-1-methyl-1H-indazol-6-yl)oxy)piperidin-1-yl)pyrimidin-4-yl)amino)-1-methyl-2-oxo-1,2-dihydro-1,8-naphthyridin-3-yl)oxy)-N-methylacetamide] | ++++ (Ymin < 30%) | < 10 nM
12 | CNC(=O)COc1cc2cc(Nc3nc(N4CCN(CC5CCN(c6ccc7c(C8CCC(=O)NC8=O)nn(C)c7c6)CC5)C[C@@H]4CO)ncc3Cl)cnc2n(C(C)C)c1=O (stereo partly drawn) [Compound 151a, 2-((6-((5-chloro-2-((2R)-4-((1-(3-(2,6-dioxopiperidin-3-yl)-1-methyl-1H-indazol-6-yl)piperidin-4-yl)methyl)-2-(hydroxymethyl)piperazin-1-yl)pyrimidin-4-yl)amino)-1-isopropyl-2-oxo-1,2-dihydro-1,8-naphthyridin-3-yl)oxy)-N-methylacetamide] | +++ (30% ≤ Ymin < 50%) | < 10 nM
13 | CNC(=O)COc1cc2cc(Nc3nc(N4CCC(CN5CCN(c6cccc7c(C8CCC(=O)NC8=O)nn(C)c67)C[C@@H]5C)CC4)ncc3F)cnc2n(C(C)C)c1=O (stereo partly drawn) [Compound 188b, 2-[[6-[[2-[4-[[(2S)-4-[3-(2,6-dioxo-3-piperidyl)-1-methyl-indazol-7-yl]-2-methyl-piperazin-1-yl]methyl]-1-piperidyl]-5-fluoro-pyrimidin-4-yl]amino]-1-isopropyl-2-oxo-1,8-naphthyridin-3-yl]oxy]-N-methyl-acetamide] | ++++ (Ymin < 30%) | 10 to 100 nM
14 | CNC(=O)COc1cc2cc(Nc3nc(N4CCC(CN5CCN(c6cccc7c(C8CCC(=O)NC8=O)nn(C)c67)CC5(C)C)CC4)ncc3Cl)cnc2n(C(C)C)c1=O (stereo not shown) [Compound 200, 2-[[6-[[5-chloro-2-[4-[[4-[3-(2,6-dioxo-3-piperidyl)-1-methyl-indazol-7-yl]-2,2-dimethyl-piperazin-1-yl]methyl]-1-piperidyl]pyrimidin-4-yl]amino]-1-isopropyl-2-oxo-1,8-naphthyridin-3-yl]oxy]-N-methyl-acetamide] | +++ (30% ≤ Ymin < 50%) | 10 to 100 nM
